Data reported in PubChem BioAssay AID330 (DTP/NCI, 2004).
Where “and” joins values, the source holds several entries; their conditions need not be identical. Equal entries are not always repeated. Inconclusive results and toxic doses are left out.

Tested on: P388 leukemia ip, CD2F1 mice, survival T/C
Experiment: NCI In Vivo Anticancer Drug Screen. Data for tumor model P388 Leukemia (intraperitoneal) in CD2F1 (CDF1) mice
Details: endpoint: median survival time, higher = longer survival
How it was run: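 Mice carrying the transplanted tumor received test compound or vehicle. Survival was recorded in each group, and the value is the treated-group measurement divided by that of the vehicle-treated control group.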

[1] = dose: 25.0 mg/kg/injection, schedule: Q01DX005 (ip), vehicle: Klucel (hydroxypropylcellulose) (HPC)
[2] = dose: 50.0 mg/kg/injection, schedule: Q01DX005 (ip), vehicle: Klucel (hydroxypropylcellulose) (HPC)
[3] = dose: 100.0 mg/kg/injection, schedule: Q01DX005 (ip), vehicle: Klucel (hydroxypropylcellulose) (HPC)
[4] = dose: 200.0 mg/kg/injection, schedule: Q01DX005 (ip), vehicle: Klucel (hydroxypropylcellulose) (HPC)
[5] = dose: 100.0 mg/kg/injection, schedule: Q01DX001 (ip), vehicle: Klucel (hydroxypropylcellulose) (HPC)
[6] = dose: 200.0 mg/kg/injection, schedule: Q01DX001 (ip), vehicle: Klucel (hydroxypropylcellulose) (HPC)
[7] = dose: 100.0 mg/kg/injection, schedule: Q04DX002 (ip), vehicle: saline with Tween-80
[8] = dose: 200.0 mg/kg/injection, schedule: Q04DX002 (ip), vehicle: saline with Tween-80
[9] = dose: 50.0 mg/kg/injection, schedule: Q01DX005 (ip), vehicle: saline with Tween-80
[10] = dose: 100.0 mg/kg/injection, schedule: Q01DX005 (ip), vehicle: saline with Tween-80
[11] = dose: 50.0 mg/kg/injection, schedule: Q01DX009 (ip), vehicle: saline
[12] = dose: 100.0 mg/kg/injection, schedule: Q01DX009 (ip), vehicle: saline
[13] = dose: 200.0 mg/kg/injection, schedule: Q01DX009 (ip), vehicle: saline
[14] = dose: 60.0 mg/kg/injection, schedule: Q01DX005 (ip), vehicle: saline with Tween-80
[15] = dose: 120.0 mg/kg/injection, schedule: Q01DX005 (ip), vehicle: saline with Tween-80
[16] = dose: 240.0 mg/kg/injection, schedule: Q01DX005 (ip), vehicle: saline with Tween-80

Which results are given for `CSC(C(=O)c1ccccc1)c1ccccc1` (stereo not given)?
T/C (dose: 25.0 mg/kg/injection, schedule: Q01DX009 (ip), vehicle: saline + alcohol): 87 % of control; T/C (dose: 50.0 mg/kg/injection, schedule: Q01DX009 (ip), vehicle: saline + alcohol): 96 % of control; T/C (dose: 100.0 mg/kg/injection, schedule: Q01DX009 (ip), vehicle: saline + alcohol): 112 % of control

`CCC(C)N=Cc1ccco1` (stereo not given) was tested. Which T/C [1] did it give?
The T/C was 101 % of control.

What about the T/C [2] of the same compound?
The T/C was 104 % of control.

What about the T/C [3] of the same compound?
The T/C was 90 % of control.

What about the T/C [4] of the same compound?
The T/C was 99 % of control.

With `CO[C@H]1Nc2c(ccc(C)c2O)C(=O)N2C=C(/C=C/C(N)=O)C[C@@H]12` as the compound, how does the T/C (dose: 0.05 mg/kg/injection, schedule: Q04DX003 (ip), vehicle: DMSO) read?
The T/C was 106 % of control.

What about the T/C (dose: 0.05 mg/kg/injection, schedule: Q04DX003 (ip), vehicle: saline) of the same compound?
The T/C was 122 % of control.

And the T/C (dose: 0.1 mg/kg/injection, schedule: Q04DX003 (ip), vehicle: DMSO)?
Its T/C is 112 % of control.

And the T/C (dose: 0.13 mg/kg/injection, schedule: Q04DX003 (ip), vehicle: saline + alcohol)?
Its T/C is 152 % of control.

And the T/C (dose: 0.2 mg/kg/injection, schedule: Q04DX003 (ip), vehicle: DMSO)?
Its T/C is 118 % of control.

And the T/C (dose: 0.2 mg/kg/injection, schedule: Q04DX003 (ip), vehicle: saline)?
Its T/C is 122 % of control.

And the T/C (dose: 0.22 mg/kg/injection, schedule: Q04DX003 (ip), vehicle: saline + alcohol)?
The T/C was 153 % of control and 161 % of control (2×).

What about the T/C (dose: 0.4 mg/kg/injection, schedule: Q04DX003 (ip), vehicle: saline) of the same compound?
Its T/C is 155 % of control.

And the T/C (dose: 0.6 mg/kg/injection, schedule: Q04DX003 (ip), vehicle: saline + alcohol)?
Its T/C is 185 % of control.

What about the T/C (dose: 0.8 mg/kg/injection, schedule: Q04DX003 (ip), vehicle: saline) of the same compound?
The T/C was 110 % of control.

What about the T/C (dose: 200.0 micrograms/kg/injection, schedule: Q01DX009 (ip), vehicle: saline) of the same compound?
Its T/C is 150 % of control.

And the T/C (dose: 200.0 micrograms/kg/injection, schedule: Q04DX003 (ip), vehicle: saline with Tween-80)?
Its T/C is 165 % of control.

What does the source list for `NC(=O)CCCC(C(N)=O)(c1ccccc1)c1ccccc1`?
T/C [5]: 101 % of control; T/C [6]: 100 % of control; T/C (dose: 400.0 mg/kg/injection, schedule: Q01DX001 (ip), vehicle: Klucel (hydroxypropylcellulose) (HPC)): 100 % of control

With `COc1ccc(/C=N/SC(c2ccccc2)(c2ccccc2)c2ccccc2)cc1` as the compound, how does the T/C [7] read?
The T/C was 111 % of control.

What about the T/C [8] of the same compound?
Its T/C is 99 % of control.

What about the T/C (dose: 400.0 mg/kg/injection, schedule: Q04DX002 (ip), vehicle: saline with Tween-80) of the same compound?
Its T/C is 92 % of control.

What does the source list for `CC1=CCCCN1C(=O)CC1C=CCS1(=O)=O` (stereo not given)?
T/C (dose: 25.0 mg/kg/injection, schedule: Q01DX005 (ip), vehicle: saline with Tween-80): 100 % of control; T/C [9]: 103 % of control; T/C [10]: 103 % of control

Which T/C (dose: 25.0 mg/kg/injection, schedule: Q04DX002 (ip), vehicle: saline with Tween-80) does the source give for `CCCCCCC(=O)/C=C\c1ccccc1` here?
The T/C was 95 % of control.

What about the T/C (dose: 50.0 mg/kg/injection, schedule: Q04DX002 (ip), vehicle: saline with Tween-80) of the same compound?
The T/C was 100 % of control.

What about the T/C [7] of the same compound?
The T/C was 97 % of control.

And the T/C [8]?
The T/C was 106 % of control.

For `Cc1cn2c(n1)sc1ccccc12`, which T/C [9] is on record?
Its T/C is 96 % of control.

What about the T/C [10] of the same compound?
Its T/C is 95 % of control.

What about the T/C (dose: 200.0 mg/kg/injection, schedule: Q01DX005 (ip), vehicle: saline with Tween-80) of the same compound?
The T/C was 95 % of control.

What does the source list for `CSCCC(NC(=O)C(Cc1c[nH]c2ccccc12)NC(=O)CCNC(=O)OC(C)(C)C)C(=O)NC(CC(=O)O)C(=O)NC(Cc1ccccc1)C(N)=O` (stereo not given)?
T/C [2]: 98 % of control; T/C [3]: 100 % of control; T/C [4]: 97 % of control

With `O=C(Nc1ccc(Oc2ccc(Cl)cc2)c(Cl)c1)c1cc(I)cc(I)c1O` as the compound, how does the T/C (dose: 12.5 mg/kg/injection, schedule: Q01DX005 (ip), vehicle: Klucel (hydroxypropylcellulose) (HPC)) read?
Its T/C is 96 % of control.

And the T/C [1]?
The T/C was 109 % of control.

And the T/C [2]?
The T/C was 101 % of control and 115 % of control.

For `OCC1OC2NC(=S)OC2C1O` (stereo not given), which T/C [11] is on record?
Its T/C is 100 % of control.

And the T/C [12]?
Its T/C is 100 % of control.

And the T/C [13]?
The T/C was 95 % of control.

Which results are given for `COc1ccc(OC)c(/C=C/c2cnnc3ccccc23)c1`?
T/C (dose: 18.75 mg/kg/injection, schedule: Q04DX003 (ip), vehicle: Klucel (hydroxypropylcellulose) (HPC)): 100 % of control; T/C (dose: 37.5 mg/kg/injection, schedule: Q04DX003 (ip), vehicle: Klucel (hydroxypropylcellulose) (HPC)): 111 % of control; T/C (dose: 75.0 mg/kg/injection, schedule: Q04DX003 (ip), vehicle: Klucel (hydroxypropylcellulose) (HPC)): 100 % of control; T/C (dose: 150.0 mg/kg/injection, schedule: Q04DX003 (ip), vehicle: Klucel (hydroxypropylcellulose) (HPC)): 106 % of control; T/C (dose: 300.0 mg/kg/injection, schedule: Q04DX003 (ip), vehicle: Klucel (hydroxypropylcellulose) (HPC)): 103 % of control

With `NC(C(=O)O)c1ccc(CO)cc1` (stereo not given) as the compound, how does the T/C (dose: 25.0 mg/kg/injection, schedule: Q01DX009 (ip), vehicle: saline with Tween-80) read?
Its T/C is 100 % of control.

And the T/C (dose: 50.0 mg/kg/injection, schedule: Q01DX005 (ip), vehicle: water)?
The T/C was 86 % of control.

What about the T/C (dose: 50.0 mg/kg/injection, schedule: Q01DX009 (ip), vehicle: saline with Tween-80) of the same compound?
Its T/C is 86 % of control.

And the T/C (dose: 100.0 mg/kg/injection, schedule: Q01DX005 (ip), vehicle: water)?
The T/C was 107 % of control.

What about the T/C (dose: 100.0 mg/kg/injection, schedule: Q01DX009 (ip), vehicle: saline with Tween-80) of the same compound?
The T/C was 106 % of control.

What about the T/C (dose: 200.0 mg/kg/injection, schedule: Q01DX005 (ip), vehicle: water) of the same compound?
The T/C was 97 % of control.

`COc1cccc(/C=C/c2ccnnc2)c1` was tested. Which T/C [11] did it give?
Its T/C is 96 % of control.

And the T/C [12]?
Its T/C is 95 % of control.

What about the T/C [13] of the same compound?
Its T/C is 95 % of control.

What does the source list for `CC1(C)OC(=O)N=C1c1ccc(F)cc1`?
T/C (dose: 60.0 mg/kg/injection, schedule: Q01DX005 (ip), vehicle: Klucel (hydroxypropylcellulose) (HPC)): 102 % of control; T/C (dose: 120.0 mg/kg/injection, schedule: Q01DX005 (ip), vehicle: Klucel (hydroxypropylcellulose) (HPC)): 107 % of control; T/C (dose: 240.0 mg/kg/injection, schedule: Q01DX005 (ip), vehicle: Klucel (hydroxypropylcellulose) (HPC)): 111 % of control

For `O=C1CC2(CCCCC2)CC(=O)N1c1ccc(O)c(CN2CCCCC2)c1`, which T/C (dose: 50.0 mg/kg/injection, schedule: Q01DX009 (ip), vehicle: Klucel (hydroxypropylcellulose) (HPC)) is on record?
Its T/C is 104 % of control.

And the T/C (dose: 100.0 mg/kg/injection, schedule: Q01DX009 (ip), vehicle: Klucel (hydroxypropylcellulose) (HPC))?
The T/C was 108 % of control.

And the T/C (dose: 200.0 mg/kg/injection, schedule: Q01DX009 (ip), vehicle: Klucel (hydroxypropylcellulose) (HPC))?
The T/C was 102 % of control.

For `c1ccc(SCCOCCOCCSc2ccccn2)nc1`, which T/C [1] is on record?
Its T/C is 103 % of control.

What about the T/C [2] of the same compound?
Its T/C is 108 % of control.

And the T/C [3]?
Its T/C is 111 % of control.

`COc1ccc2c(O)c(S(=O)(=O)c3ccc(C)cc3)c(=O)oc2c1` was tested. Which T/C [14] did it give?
The T/C was 92 % of control.

What about the T/C [15] of the same compound?
The T/C was 104 % of control.

What about the T/C [16] of the same compound?
Its T/C is 115 % of control.

Which results are given for `O=C(O)CSCC(=O)Nc1ccccc1Cl`?
T/C [14]: 95 % of control; T/C [15]: 91 % of control; T/C [16]: 100 % of control

What does the source list for `CC1CC(C#N)=C(NC#N)NC1=O` (stereo not given)?
T/C (dose: 7.5 mg/kg/injection, schedule: Q01DX005 (ip), vehicle: saline with Tween-80): 108 % of control; T/C (dose: 7.5 mg/kg/injection, schedule: Q01DX005 (ip), vehicle: saline): 101 % of control; T/C (dose: 15.0 mg/kg/injection, schedule: Q01DX005 (ip), vehicle: saline with Tween-80): 111 % of control; T/C (dose: 15.0 mg/kg/injection, schedule: Q01DX005 (ip), vehicle: saline): 106 % of control

`CC(=O)ON1C(=O)C=CC1=O` was tested. Which T/C (dose: 0.78 mg/kg/injection, schedule: Q01DX009 (ip), vehicle: water) did it give?
The T/C was 109 % of control.

What about the T/C (dose: 1.56 mg/kg/injection, schedule: Q01DX009 (ip), vehicle: water) of the same compound?
Its T/C is 101 % of control.

And the T/C (dose: 3.13 mg/kg/injection, schedule: Q01DX009 (ip), vehicle: water)?
The T/C was 104 % of control and 87 % of control.

What about the T/C (dose: 6.25 mg/kg/injection, schedule: Q01DX009 (ip), vehicle: water) of the same compound?
The T/C was 104 % of control and 86 % of control.

What about the T/C (dose: 12.5 mg/kg/injection, schedule: Q01DX009 (ip), vehicle: water) of the same compound?
Its T/C is 109 % of control and 90 % of control.

What does the source list for `COc1cc2c(cc1OC)CN1CCc3ccsc3C1C2` (stereo not given)?
T/C (dose: 50.0 mg/kg/injection, schedule: Q01DX001 (ip), vehicle: Klucel (hydroxypropylcellulose) (HPC)): 104 % of control; T/C [5]: 101 % of control; T/C [6]: 97 % of control
